The values that follow come from patent publication US20090036449A1, “Indazolesquaric Acid Derivatives as Chk1, Chk2 and Sgk Inhibitors” (priority 2005, published 2009).

The experiment deals with T1, SGK1 protein kinase (Homo sapiens, UniProt O00141).
T1 sequence (O00141 1-431): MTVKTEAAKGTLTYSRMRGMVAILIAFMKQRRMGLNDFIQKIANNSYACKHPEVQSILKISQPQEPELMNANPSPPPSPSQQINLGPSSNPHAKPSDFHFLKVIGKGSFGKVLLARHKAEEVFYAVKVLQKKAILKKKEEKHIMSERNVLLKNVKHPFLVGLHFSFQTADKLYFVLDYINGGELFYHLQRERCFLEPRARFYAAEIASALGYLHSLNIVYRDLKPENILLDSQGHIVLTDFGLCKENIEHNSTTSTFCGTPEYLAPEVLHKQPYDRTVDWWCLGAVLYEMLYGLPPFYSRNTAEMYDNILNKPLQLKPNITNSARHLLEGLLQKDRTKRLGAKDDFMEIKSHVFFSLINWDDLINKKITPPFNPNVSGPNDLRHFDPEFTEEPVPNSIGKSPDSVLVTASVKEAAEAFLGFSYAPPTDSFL
Kind of experiment: SGK inhibition (filter binding method, analogously to CHK1, CHK2). It counts as biochemical. The protocol:
5-20 mU of CHK1 kinase (diluted in 20 mM MOPS pH7.5, 1 mM EDTA, 0.1% β-mercaptoethanol, 0.01% Brij-35, 5% glycerol, 1 mg/ml of BSA) are incubated for 30 min at room temperature in the presence of 30-200 μM CHKtide in 25.5 μl in 1-fold reaction buffer (8 mM MOPS pH7, 0.2 mM EDTA, 10 mM magnesium acetate, 0.02 mM ^33P-ATP [500-1000 cpm/pmol]). The reaction is stopped using 5 μl of 0.5 M ortho-phosphoric acid and filtered through P81 filter plates. After the filter plates have been washed a number of times, the bound radioactivity is determined in a scintillation counter.
5-20 mU of CHK2 kinase (diluted in 20 mM MOPS pH7.5, 1 mM EDTA, 0.1% β-mercaptoethanol, 0.01% Brij-35, 5% glycerol, 1 mg/ml of BSA) are incubated for 30 min at room temperature in the presence of 30-200 μM CHKtide ([…]) in 25.5 μl in 1-fold reaction buffer (8 mM MOPS pH7, 0.2 mM EDTA, 10 mM magnesium acetate, 0.02 mM ^33P-ATP [500-1000 cpm/pmol]). The reaction is stopped using 5 μl of 0.5 M ortho-phosphoric acid and filtered through P81 filter plates. After the filter plates have been washed a number of times, the bound radioactivity is determined in a scintillation counter.
The inhibition of SGK1 protein kinase can be determined in the filter binding method (analogously to CHK1, CHK2).
By IC50 is commonly meant the concentration at which inhibition is half-maximal. Regarding `COc1cccc(CNc2c(Nc3ccc4[nH]nc(NC(=O)c5ccccc5)c4c3)c(=O)c2=O)c1` [Compound 41, 3-(3-benzoylamino-1H-indazol-5-ylamino)-4-(3-methoxybenzylamino)cyclobut-3-ene-1,2-dione], the half-inhibitory concentration (IC50) worked out at 61.5 nM.

As to `O=C(Nc1n[nH]c2ccc(Nc3c(NCc4cccc(O)c4)c(=O)c3=O)cc12)c1ccccc1` [Compound 40, 3-(3-benzoylamino-1H-indazol-5-ylamino)-4-(3-hydroxybenzylamino)cyclobut-3-ene-1,2-dione], the IC50 turned out to be 10 nM.

As to `COc1cccc([C@@H](C)Nc2c(Nc3ccc4[nH]nc(NC(=O)c5ccccc5)c4c3)c(=O)c2=O)c1` [Compound 42, 3-(3-benzoylamino-1H-indazol-5-ylamino)-4-[(R)-1-(3-methoxyphenyl)ethylamino]cyclobut-3-ene-1,2-dione], the half-maximal inhibitory concentration (IC50) came to 10 nM.
